Consider 22 compounds from patent US20240360081A1, “SULFONAMIDE OREXIN RECEPTOR AGONISTS AND USES THEREOF” (Jazz Pharmaceuticals Ireland Limited, priority 2021, published 2024).

Molecules are shown by their SMILES. pEC50: −log10 of the molar value.

The pEC50 is −log10 of the EC50, conventionally taken in molar units.

For the experiment, the target named is T1, human recombinant OX2 (hOX2) receptor expressed in CHO cells (Homo sapiens, UniProt O43614).
T1 construct: host or cells: CHO cells (hOX2-CHO)
T1 sequence (O43614 1-444): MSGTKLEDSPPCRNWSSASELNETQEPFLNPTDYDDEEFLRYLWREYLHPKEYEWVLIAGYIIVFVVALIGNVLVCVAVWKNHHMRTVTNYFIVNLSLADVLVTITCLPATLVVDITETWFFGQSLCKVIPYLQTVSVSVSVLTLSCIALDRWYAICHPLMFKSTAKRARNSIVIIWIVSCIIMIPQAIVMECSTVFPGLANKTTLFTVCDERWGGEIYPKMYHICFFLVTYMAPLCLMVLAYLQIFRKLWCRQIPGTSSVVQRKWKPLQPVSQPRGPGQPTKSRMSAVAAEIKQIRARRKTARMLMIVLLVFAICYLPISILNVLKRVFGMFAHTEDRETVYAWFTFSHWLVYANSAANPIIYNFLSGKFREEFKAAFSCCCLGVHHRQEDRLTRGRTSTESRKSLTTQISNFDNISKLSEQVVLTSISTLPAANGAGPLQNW
The experiment is described as follows: IP-1 accumulation assay (IP-One HTRF) in hOX2-CHO cells. The experiment is classed as cell-based. The following applies: 60 min at 37° C., 11 points CRC, response as % of maximal OX-A response. The protocol:
The accumulation of Inositol-1 Monophosphate (IP-1) was measured using IP-One HTRF® Terbium cryptate based assay (Cisbio) in human recombinant OX1 (hOX1) and at OX2 (hOX2) receptors expressed in CHO cells (DiscoverX) according to the manufacturer's instructions for cells tested in suspension.
hOX1-CHO and hOX2-CHO cells were seeded into white 384-well plates at a density of 20,000 cells/well in Hank's Balanced Salt Solution (HBSS) containing 20 mM HEPES pH 7.4, 50 mM, LiCl and 0.1% and Bovine Serum Albumin (BSA).
Compounds of the present disclosure were tested in a 11 points concentration response curve (CRC) serially diluted in neat DMSO at 200 fold concentrations and added by Echo acoustic liquid handling (Labcyte) to the cells (0.5% DMSO final in the assay). After 60 min of incubation at 37° C. detection reagents, IP1-d2 tracer and anti-IP1-cryptate were diluted in lysis buffer according to the manufacturer's descriptions and added to the cells.
Following 60 min incubation at room temperature, time-resolved fluorescence (HTRF) was measured at 615 nm and 665 nm by Envision Multilabel reader (Perkin Elmer) and the HTRF ratio (A665/A615x104) was calculated.
The IP-1 accumulation response was expressed as percentage of the maximal OX-A response.
Curve fitting and EC50 estimations were carried out using a four-parameter logistic model using XLfit Software. Mean data of EC50 are calculated from at least two independent experiments performed in duplicates.
In the Tables, below Category A corresponds to compounds displaying an […]<100 nM, Category B between 100 nM and 1,000 nM, Category C between 1,000 nM and 10,000 nM and Category D above 10,000 nM.
A general note: TR-FRET usually uses a lanthanide donor and a delayed reading to cut background.
In the case of `Cc1ccnn1C(CNS(C)(=O)=O)CO[C@H]1CC[C@@H](c2ccccc2)CC1` (single isomer, unassigned; isomer 2) [Example 2ae, (S or R) N-[2-(5-methyl-1H-pyrazol-1-yl)-3-{[(CIS)-4-phenylcyclohexyl]oxy}propyl]methanesulfonamide-Isomer 2], the pEC50 was less than 5.00.
The figure for `Cc1ccn(C(CNS(C)(=O)=O)CO[C@H]2CC[C@@H](c3ccccc3)CC2)c(=O)c1` (stereo partly drawn) [Example 2d, N-[2-(4-methyl-2-oxo-1,2-dihydropyridin-1-yl)-3-{[(CIS)-4-phenylcyclohexyl]oxy}propyl]methanesulfonamide] is 5.00 to 6.00; for `Cc1cc(C(CNS(=O)(=O)CF)CO[C@H]2CC[C@@H](c3cccc(F)c3)CC2)c(=O)n(C)c1` (single isomer, unassigned; isomer 1) [Example 5n, (R or S) N-[2-(1,5-dimethyl-2-oxo-1,2-dihydropyridin-3-yl)-3-{[(CIS)-4-(3-fluorophenyl)cyclohexyl]oxy}propyl]-1-fluoromethanesulfonamide—Isomer 1] it is greater than 7.00.
To `CS(=O)(=O)NCC(CO[C@H]1CC[C@@H](c2ccccc2)CC1)n1cccc(F)c1=O` (single isomer, unassigned; isomer 1) [Example 2g, (R or S) N-[2-(3-fluoro-2-oxo-1,2-dihydropyridin-1-yl)-3-{[(CIS)-4-phenylcyclohexyl]oxy}propyl]methanesulfonamide-Isomer 1] belongs 5.00 to 6.00; to `CS(=O)(=O)NCC(CO[C@H]1CC[C@@H](c2ccccc2)CC1)n1cc(Cl)ccc1=O` (stereo partly drawn) [Example 2p, N-[2-(5-chloro-2-oxo-1,2-dihydropyridin-1-yl)-3-{[(CIS)-4-phenylcyclohexyl]oxy}propyl]methanesulfonamide], 5.00 to 6.00; to `CS(=O)(=O)NCC(CO[C@H]1CC[C@@H](c2ccccc2)CC1)n1ccc(C(F)(F)F)cc1=O` (stereo partly drawn) [Example 2w, N-{2-[2-oxo-4-(trifluoromethyl)-1,2-dihydropyridin-1-yl]-3-{[(CIS)-4-phenylcyclohexyl]oxy}propyl}methanesulfonamide], less than 5.00.
To `CCC[C@H]1CC[C@@H](OCC(CNS(=O)(=O)N(C)C)n2cc(C)cc(C)c2=O)CC1` (stereo partly drawn) [Example 2bb, 1-{1-[(dimethylsulfamoyl)amino]-3-{[(CIS)-4-propylcyclohexyl]oxy}propan-2-yl}-3,5-dimethyl-1,2-dihydropyridin-2-one] belongs greater than 7.00; to `Cc1cc(C)[n+]([O-])c(C(CNS(C)(=O)=O)CO[C@H]2CC[C@@H](c3ccccc3)CC2)c1` (stereo partly drawn) [Example 5j, 2-(1-methanesulfonamido-3-{[(CIS)-4-phenylcyclohexyl]oxy}propan-2-yl)-4,6-dimethylpyridin-1-ium-1-olate], greater than 7.00; to `Cc1ccc(=O)n(C(CNS(C)(=O)=O)CO[C@H]2CC[C@@H](c3ccccc3)CC2)c1` (single isomer, unassigned; isomer 1) [Example 2j, (R or S) N-[2-(5-methyl-2-oxo-1,2-dihydropyridin-1-yl)-3-{[(CIS)-4-phenylcyclohexyl]oxy}propyl]methanesulfonamide-Isomer 1], 6.00 to 7.00.
For the compound `Cc1cc(C)[n+]([O-])c(C(CNS(C)(=O)=O)CO[C@H]2CC[C@@H](c3ccccc3)CC2)c1` (single isomer, unassigned; isomer 1) [Example 5k, (R or S) 2-[1-methanesulfonamido-3-{[(CIS)-4-phenylcyclohexyl]oxy}propan-2-yl]-4,6-dimethylpyridin-1-ium-1-olate—Isomer 1], the pEC50 is greater than 7.00.
To `Cc1cccn(C(CO[C@H]2CC[C@@H](c3ccccc3)CC2)C(C)NS(C)(=O)=O)c1=O` (single isomer, unassigned; isomer 3) [Example 3c, (2S or 2R) and (3R or 3S) N-[3-(3-methyl-2-oxo-1,2-dihydropyridin-1-yl)-4-{[(CIS)-4-phenylcyclohexyl]oxy}butan-2-yl]methanesulfonamide—Isomer 3] belongs less than 5.00; to `COc1ccn(C)c(=O)c1C(CNS(C)(=O)=O)CO[C@H]1CC[C@@H](c2ccccc2)CC1` (stereo partly drawn) [Example 5b, N-[2-(4-methoxy-1-methyl-2-oxo-1,2-dihydropyridin-3-yl)-3-{[(CIS)-4-phenylcyclohexyl]oxy}propyl]methanesulfonamide], 5.00 to 6.00.
The figure for `Cc1cc(C)c(=O)n(C(CNS(=O)(=O)N(C)C)CO[C@H]2CC[C@@H](c3cccc(F)c3)CC2)c1` (single isomer, unassigned; isomer 2) [Example 2as, (S or R) 1-[1-[(dimethylsulfamoyl)amino]-3-{[(CIS)-4-(3-fluorophenyl)cyclohexyl]oxy}propan-2-yl]-3,5-dimethyl-1,2-dihydropyridin-2-one-Isomer 2] is 6.00 to 7.00; for `Cc1cc(C(CNS(=O)(=O)N(C)C)CO[C@H]2CC[C@@H](c3cccc(F)c3)CC2)c(=O)n(C(F)F)c1` (single isomer, unassigned; isomer 2) [Example 5ac, (S or R) 1-(difluoromethyl)-3-[1-[(dimethylsulfamoyl)amino]-3-{[(CIS)-4-(3-fluorophenyl)cyclohexyl]oxy}propan-2-yl]-5-methyl-1,2-dihydropyridin-2-one—Isomer 2] it is 6.00 to 7.00.
The figure for `Cc1cc(C)c(=O)n(C(CNS(=O)(=O)CC(F)(F)F)CO[C@H]2CC[C@@H](c3cccc(F)c3)CC2)c1` (stereo partly drawn) [Example 2ap, N-[2-(3,5-dimethyl-2-oxo-1,2-dihydropyridin-1-yl)-3-{[(CIS)-4-(3-fluorophenyl)cyclohexyl]oxy}propyl]-2,2,2-trifluoroethane-1-sulfonamide] is 6.00 to 7.00; for `Cn1cccc(C(CNS(C)(=O)=O)CO[C@H]2CC[C@@H](c3ccccc3)CC2)c1=O` (single isomer, unassigned; isomer 1) [Example 4a, (R or S) N-[2-(1-methyl-2-oxo-1,2-dihydropyridin-3-yl)-3-{[(CIS)-4-phenylcyclohexyl]oxy}propyl]methanesulfonamide—Isomer 1] it is 5.00 to 6.00.
In the case of `Cc1cc(C)c(=O)n(C(CNS(C)(=O)=O)COC2CCN(c3ncc(F)cn3)CC2)c1` (stereo not shown) [Example 2ay, N-[2-(3,5-dimethyl-2-oxo-1,2-dihydropyridin-1-yl)-3-{[1-(5-fluoropyrimidin-2-yl)piperidin-4-yl]oxy}propyl]methanesulfonamide], the pEC50 was less than 5.00.
To `CN(C)S(=O)(=O)NCC(CO[C@H]1CC[C@@H](c2cccc(F)c2)CC1)c1cccc2c1nnn2C` (stereo partly drawn) [Example 5h, dimethyl({[2-(1-methyl-1H-1,2,3-benzotriazol-4-yl)-3-{[(CIS)-4-(3-fluorophenyl)cyclohexyl]oxy}propyl]sulfamoyl})amine] belongs 5.00 to 6.00; to `Cc1ccnn1C(CNS(C)(=O)=O)CO[C@H]1CC[C@@H](c2ccccc2)CC1` (single isomer, unassigned; isomer 1) [Example 2ad, (R or S) N-[2-(5-methyl-1H-pyrazol-1-yl)-3-{[(CIS)-4-phenylcyclohexyl]oxy}propyl]methanesulfonamide-Isomer 1], less than 5.00.
The figure for `Cc1cc(C)[n+]([O-])c(C(CNS(C)(=O)=O)CO[C@H]2CC[C@@H](c3ccccc3)CC2)c1` (single isomer, unassigned; isomer 2) [Example 5l, (S or R) 2-[1-methanesulfonamido-3-{[(CIS)-4-phenylcyclohexyl]oxy}propan-2-yl]-4,6-dimethylpyridin-1-ium-1-olate—Isomer 2] is 5.00 to 6.00; for `Cc1ccn(C(CNS(C)(=O)=O)CO[C@H]2CC[C@@H](c3ccccc3)CC2)c(=O)c1C` (single isomer, unassigned; isomer 2) [Example 2o, (S or R) N-[2-(3,4-dimethyl-2-oxo-1,2-dihydropyridin-1-yl)-3-{[(CIS)-4-phenylcyclohexyl]oxy}propyl]methanesulfonamide-Isomer 2] it is less than 5.00.
`Cc1cccn(C(CO[C@H]2CC[C@@H](c3ccccc3)CC2)C(C)NS(C)(=O)=O)c1=O` (single isomer, unassigned; isomer 2) [Example 3b, (2S or 2R) and (3S or 3R) N-[3-(3-methyl-2-oxo-1,2-dihydropyridin-1-yl)-4-{[(CIS)-4-phenylcyclohexyl]oxy}butan-2-yl]methanesulfonamide—Isomer 2]: the pEC50 is 5.00 to 6.00.
